Measured values: paper PMC7998669, “7-(2-Anilinopyrimidin-4-yl)-1-benzazepin-2-ones Designed by a “Cut and Glue” Strategy Are Dual Aurora A/VEGF-R Kinase Inhibitors” (Molecules, 2021)

Assays:
Test in all cases: radiometric 33PanQinase protein kinase assay
Format in all cases: biochemical
Conditions in all cases: radiometric assay, 1 µM ATP
[1] = target: T1, VEGF-R3 (Homo sapiens, UniProt P35916)
T1 construct: host or cells: Sf9 (baculovirus)
Method: (§1) The inhibitory activity of prototype 2a was determined in a panel of 24 tumor-relevant protein kinases using a radiometric assay. Only the kinases Aurora A, VEGF-R2 and VEGF-R3 were inhibited with single digit micromolar IC50 values (Table 2). Structural modifications were then implemented, particularly directed to improve inhibition of Aurora A. The so-designed congeners with small substituents at the aniline ring 2b–2n were examined for inhibition of Aurora A and of VEGF-R2, VEGF-R3 and Aurora B for comparison (Table 3).
(§2) The screening for protein kinase inhibition was performed with the radiometric ^33Panqinase activity assay at Reaction Biology Europe GmbH (Freiburg) using a robotic system (Beckmann Coulter/SagianRoboter) and 96-well plates (FlashPlates, Perkin/Elmer/NEN, Boston, MA, USA). In brief, the transfer of ^33P-phosphate into the substrate was measured with a microplate scintillation counter (Microbeta Trilux, Wallace). Protein kinases were expressed in Sf9 cells as recombinant glutathione S-transferase (GST) or polyhistidine (His)-tagged proteins in baculovirus. Isolation and purification of expressed kinases were performed with affinity chromatography by using GSH agarose (Sigma) or Ni-NTA agarose (Qiagen). The standard solution for each enzyme contained: 60 mM HEPES-NaOH (pH 7.5), 3 mM MgCl2, 3 µM sodium orthovanadate, 1.2 mM DTT, 50 µg/mL PEG20000 and 1 µM [γ-^33P]-ATP (approximately 5 × 10^5 cpm per well). In chronological order the reaction mixture was prepared: 20 µL standard solution, 5 µL ATP solution in water, 5 µL of the compound in 10% DMSO and 20 µL of enzyme/substrate mixture (50:50). Each kinase contained different substrates in different concentrations: 125 ng/50 µL Poly(Glu, Tyr)4:1 for 20 ng/50 µL IGF1-R, 25 ng/50 µL IGF1-R, 20 ng/50 µL EGF-R, 25 ng/50 µL EGF-R, 40 ng/50 µL EGF-R, 10 ng/50 µL EPHB4, 20 ng/50 µL EPHB4, 200 ng/50 µL ERBB2, 10 ng/50 µL SRC, 100 ng/50 µL FAK, 200 ng/50 µL FAK, 50 ng/50 µL VEGF-R2, 100 ng/50 µL VEGF-R3, 200 ng/50 µLTIE2; 250 ng/50 µL Poly(Glu, Tyr)4:1 for 200 ng/50 µL TIE2; 500 ng/50 µL tetra (LRRWSLG) for 50 ng/50 µL Aurora-A, 25 ng/50 µL PAK4, 25 ng/50 µL PDK1; 250 ng/50 µL tetra (LRRWSLG) for 50 ng/50 µL Aurora-B, 200 ng/50 µL Aurora-B; 125 ng/50 µL Histon H1 for 100 ng/50 µL CDK2/CycA; 250 ng/50 µL Rb-CTF for 50 ng/50 µL CDK/CycD1; 500 ng/50 µL Rb-CTF for 50 ng/50 µL CDK4/CycD1; 125 ng/50 µL Poly(ala, Glu, Lys, Tyr)6:2:5:1 for 25 ng/50 µL INS-R, 50 ng/50 µL PDGFR-beta, 100 ng/50 µL PDGFR-beta, 100 ng/50 µL FLT3, 150 ng/50 µL FLT3, 20 ng/50 µL MET, 50 ng/50 µL MET, 100 ng/50 µL MET; 250 ng/50 µL Casein for 200 ng/50 µL CK2-alpha1, 200 ng/50 µL PLK1; 1000 ng/50 µL Casein for 200 ng/50 µL PLK1, 200 ng/50 µL CK2-alpha1; 1000 ng/50 µLGSK3 (14–27) for 100 ng/50 µL AKT1; 125 ng/50 µL p53-CTM for 150 ng/50 µL CK2-alpha1, 200 ng/50 µLCK2-alpha1; 250 ng/50 µL MEK-KM for 20 ng/50 µL B-RAF-VE; autophosphorylation at ARK5, COT and SAK. After incubation (80 min, 30 °C) the reaction was stopped by adding 50 µL 2% (v/v) phosphoric acid to the reaction mixture. The microplate was washed twice with 200 µL 0.9% (v/v) saturated sodium chloride or water. The measured radioactivity, conditioned by the incorporation of [γ-^33P]-phosphate, is proportional to kinase activity. Furthermore, low control and high control were measured to determine the residual activity (%). As low controls, mixtures with substrate, but without enzyme were used to determine the unspecific binding of [γ-^33P]-phosphate to the well plate. Mixtures with enzyme, but without inhibitor were used as high controls to determine maximum enzyme activity. The IC50-values of the distinct compounds were calculated with Quattro Workflow V1.1.0.8 (Quattro Research GmbH, München, Germany). Dose response curves were generated by measurement of the residual activity of ten different inhibitor concentrations (0.1 mM, 30.0 µM, 10 µM, 3.0 µM, 1.0 µM, 0.3 µM, 0.1 µM, 30.0 nM, 10.0 nM and 3.0 nM). […]

[2] = target: T2, VEGF-R2 (Homo sapiens, UniProt P35968)
T2 construct: host or cells: Sf9 (baculovirus)
Method: as §1, §2

[3] = target: T3, Aurora-B (Homo sapiens, UniProt Q96GD4)
T3 construct: host or cells: Sf9 (baculovirus)
Method: as §1, §2

[4] = target: T4, Aurora-A (Homo sapiens, UniProt O14965)
T4 construct: host or cells: Sf9 (baculovirus)
T4 sequence (O14965 1-403): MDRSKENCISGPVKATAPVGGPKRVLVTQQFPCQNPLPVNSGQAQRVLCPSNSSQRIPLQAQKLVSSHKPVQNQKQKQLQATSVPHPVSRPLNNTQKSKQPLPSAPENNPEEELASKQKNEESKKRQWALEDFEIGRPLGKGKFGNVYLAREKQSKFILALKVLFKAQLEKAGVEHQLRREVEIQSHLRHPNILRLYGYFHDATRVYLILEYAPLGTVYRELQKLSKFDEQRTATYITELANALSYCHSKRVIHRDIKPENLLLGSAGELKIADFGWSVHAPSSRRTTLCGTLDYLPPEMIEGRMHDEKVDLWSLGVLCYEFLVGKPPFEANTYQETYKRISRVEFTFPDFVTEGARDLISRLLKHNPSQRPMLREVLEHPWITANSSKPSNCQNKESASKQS
Method: as §1, §2

T1 sequence (P35916 25-1363): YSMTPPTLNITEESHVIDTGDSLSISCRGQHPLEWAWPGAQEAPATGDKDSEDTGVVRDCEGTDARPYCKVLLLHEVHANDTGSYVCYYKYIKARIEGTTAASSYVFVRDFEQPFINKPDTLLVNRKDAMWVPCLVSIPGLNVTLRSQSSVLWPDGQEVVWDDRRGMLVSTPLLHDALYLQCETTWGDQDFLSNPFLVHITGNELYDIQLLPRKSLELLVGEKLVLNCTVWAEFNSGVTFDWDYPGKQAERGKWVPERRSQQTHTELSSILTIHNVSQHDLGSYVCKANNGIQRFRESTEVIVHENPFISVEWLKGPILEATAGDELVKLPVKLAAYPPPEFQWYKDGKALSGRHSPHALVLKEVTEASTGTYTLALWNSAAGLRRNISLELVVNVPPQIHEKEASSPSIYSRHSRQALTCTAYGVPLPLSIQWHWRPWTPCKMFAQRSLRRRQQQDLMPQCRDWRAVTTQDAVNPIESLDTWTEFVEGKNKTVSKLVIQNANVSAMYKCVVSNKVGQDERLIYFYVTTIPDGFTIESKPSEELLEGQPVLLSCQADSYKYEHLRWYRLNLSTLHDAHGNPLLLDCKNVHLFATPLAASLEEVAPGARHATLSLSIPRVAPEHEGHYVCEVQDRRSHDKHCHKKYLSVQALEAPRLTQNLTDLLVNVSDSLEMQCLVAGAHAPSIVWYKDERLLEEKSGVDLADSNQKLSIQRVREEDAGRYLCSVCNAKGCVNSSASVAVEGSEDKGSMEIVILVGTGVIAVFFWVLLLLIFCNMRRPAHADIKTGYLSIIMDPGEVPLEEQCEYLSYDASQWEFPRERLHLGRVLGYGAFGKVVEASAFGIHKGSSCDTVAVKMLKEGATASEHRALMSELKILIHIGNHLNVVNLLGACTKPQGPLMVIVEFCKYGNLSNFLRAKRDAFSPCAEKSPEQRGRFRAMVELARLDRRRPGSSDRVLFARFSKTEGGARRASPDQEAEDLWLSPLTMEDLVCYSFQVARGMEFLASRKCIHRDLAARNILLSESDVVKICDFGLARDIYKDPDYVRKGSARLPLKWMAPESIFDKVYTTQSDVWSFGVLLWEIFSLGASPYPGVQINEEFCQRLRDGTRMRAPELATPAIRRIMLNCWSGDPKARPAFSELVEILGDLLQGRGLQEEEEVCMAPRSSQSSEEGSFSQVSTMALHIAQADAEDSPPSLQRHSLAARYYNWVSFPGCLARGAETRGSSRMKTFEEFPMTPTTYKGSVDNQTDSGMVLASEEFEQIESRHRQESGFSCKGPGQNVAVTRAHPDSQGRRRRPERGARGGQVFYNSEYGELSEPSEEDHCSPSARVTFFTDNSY
T2 sequence (P35968 20-1356): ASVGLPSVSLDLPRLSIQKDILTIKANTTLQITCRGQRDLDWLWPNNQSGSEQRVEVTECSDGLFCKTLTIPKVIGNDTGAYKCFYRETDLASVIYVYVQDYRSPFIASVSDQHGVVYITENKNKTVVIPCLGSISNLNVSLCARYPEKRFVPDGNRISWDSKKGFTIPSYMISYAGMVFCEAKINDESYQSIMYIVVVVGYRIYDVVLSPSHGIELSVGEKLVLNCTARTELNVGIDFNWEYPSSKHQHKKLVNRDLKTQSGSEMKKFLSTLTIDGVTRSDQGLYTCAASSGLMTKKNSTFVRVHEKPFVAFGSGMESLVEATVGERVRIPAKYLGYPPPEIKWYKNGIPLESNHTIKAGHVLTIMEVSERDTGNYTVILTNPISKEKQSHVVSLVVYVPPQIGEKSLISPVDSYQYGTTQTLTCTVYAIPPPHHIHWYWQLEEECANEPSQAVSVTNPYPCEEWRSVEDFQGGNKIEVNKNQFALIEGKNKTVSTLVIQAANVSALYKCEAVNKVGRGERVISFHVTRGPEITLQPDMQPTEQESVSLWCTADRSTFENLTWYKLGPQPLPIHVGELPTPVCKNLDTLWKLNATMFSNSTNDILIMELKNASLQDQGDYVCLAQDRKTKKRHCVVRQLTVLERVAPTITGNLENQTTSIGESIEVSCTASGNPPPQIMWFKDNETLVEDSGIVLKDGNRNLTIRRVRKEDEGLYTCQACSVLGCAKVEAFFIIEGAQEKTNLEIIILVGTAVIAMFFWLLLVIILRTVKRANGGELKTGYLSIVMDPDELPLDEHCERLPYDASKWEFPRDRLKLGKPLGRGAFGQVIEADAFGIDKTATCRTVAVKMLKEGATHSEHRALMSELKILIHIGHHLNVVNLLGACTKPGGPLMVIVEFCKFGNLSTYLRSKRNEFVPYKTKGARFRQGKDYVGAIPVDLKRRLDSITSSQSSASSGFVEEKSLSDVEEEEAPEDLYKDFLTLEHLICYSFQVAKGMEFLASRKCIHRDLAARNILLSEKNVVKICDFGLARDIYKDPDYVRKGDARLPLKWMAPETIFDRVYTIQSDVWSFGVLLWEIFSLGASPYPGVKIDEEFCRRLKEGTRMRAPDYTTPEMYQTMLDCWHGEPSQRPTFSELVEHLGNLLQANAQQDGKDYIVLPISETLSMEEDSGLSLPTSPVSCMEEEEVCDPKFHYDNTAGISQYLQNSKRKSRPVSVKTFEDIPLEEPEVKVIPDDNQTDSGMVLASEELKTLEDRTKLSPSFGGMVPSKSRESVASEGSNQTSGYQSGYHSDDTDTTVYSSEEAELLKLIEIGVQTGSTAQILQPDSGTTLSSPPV
T3 sequence (Q96GD4 whole entry): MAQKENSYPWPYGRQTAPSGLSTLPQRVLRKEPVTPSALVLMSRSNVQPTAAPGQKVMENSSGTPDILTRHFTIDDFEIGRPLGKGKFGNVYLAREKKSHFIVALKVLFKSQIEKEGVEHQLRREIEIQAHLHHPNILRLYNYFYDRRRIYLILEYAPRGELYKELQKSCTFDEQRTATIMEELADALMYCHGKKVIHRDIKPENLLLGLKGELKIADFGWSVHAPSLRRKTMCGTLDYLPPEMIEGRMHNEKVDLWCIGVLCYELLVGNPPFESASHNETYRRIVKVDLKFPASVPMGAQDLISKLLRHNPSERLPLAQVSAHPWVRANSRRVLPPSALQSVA

SMILES | IC50 [1] | IC50 [2] | IC50 [3] | IC50 [4]
COc1ccc(Nc2nccc(-c3ccc4c(c3)CCCC(=O)N4)n2)cc1O [Compound 2n, 7-[2-(3-Hydroxy-4-methoxyanilino)pyrimidin-4-yl]-1,3,4,5-tetrahydro-2H-1-benzazepin-2-one] | 0.55 µM | 0.63 µM | 4.5 µM | 1.4 µM
O=C1CCCc2cc(-c3ccnc(Nc4ccccc4)n3)ccc2N1 [Compound 2a, 7-(2-Anilinopyrimidin-4-yl)-1,3,4,5-tetrahydro-2H-1-benzazepin-2-one] | 5.9 µM | 2.8 µM | 26 µM | 2.4 µM
O=C1CCCc2cc(-c3ccnc(Nc4ccc(O)cc4)n3)ccc2N1 [Compound 2e, 7-[2-(4-Hydroxyanilino)pyrimidin-4-yl]-1,3,4,5-tetrahydro-2H-1-benzazepin-2-one] | 1.5 µM | 1.1 µM | 3.5 µM | 0.99 µM
